Laboratory results as given in patent US20240148664A1, “LIPID AND COMPOSITION” (SOGO PHARMACEUTICAL CO., LTD., priority 2021, published 2024).

Assays:
[1] = Measurement of particle size, polydispersity index and zeta potential of lipid nanoparticle (Zetasizer); assay type: physicochemical; settings: lipid nanoparticle containing siRNA; for Zeta potential (mV): pH 7.4 Tris-HCl; for Particle size (nm) / PDI: main lipid/DPPC/cholesterol=45/10/45; for Particle size (nm): Z-average in ultrapure water; for PDI: ultrapure water
Method: 30 μL of each of the dialyzed lipid nanoparticle-containing solutions obtained by the above operation was measured out, 800 μL of ultrapure water was added to dilute the lipid nanoparticle-containing solution, and the diluted preparation solution was used to measure the particle size (nm) and the polydispersity index (PDI) by using a Zetasizer (manufactured by Malvern Panalytical, Zetasizer nano Ultra). The particle size was evaluated by Z-average in ultrapure water. The zeta potential was measured by using pH 7.4 Tris-HCl as a dilute solution.

[2] = siRNA / mRNA encapsulation rate of lipid nanoparticle (RiboGreen); assay type: physicochemical; settings: siRNA encapsulation rate of lipid nanoparticle
Method: The siRNA encapsulation rate and the mRNA encapsulation rate of the lipid nanoparticle were obtained as follows. First, a surfactant (Sigma-Aldrich, Triton (registered trademark), X-100 (reducing type)) was added to the lipid nanoparticle-containing solution to disrupt the lipid nanoparticle to release the encapsulated siRNA or mRNA. The amounts of the lipid nanoparticle-containing solution and the surfactant were adjusted such that the siRNA or the mRNA was 2 pmol and the surfactant was 1% in 40 μL of the solution after adding the surfactant to the lipid nanoparticle-containing solution. Next, the RiboGreen reagent (reagent that reacts with siRNA to emit fluorescence, manufactured by Thermo Fisher Scientific, Quant-iT (registered trademark) RiboGreen (registered trademark) RNA Assay Kit) was added to the solution, and the fluorescence intensity was measured under conditions of an excitation wavelength of 480 nm and a fluorescence wavelength of 520 nm with a fluorescence intensity meter (manufactured by TECAN, Infinite M200). Specifically, 75 μL of the RiboGreen reagent diluted to 1/2000 was added to a diluted solution obtained by adding 65 μL of citrate buffer to 10 μL of the solution, and the fluorescence intensity was measured. This makes it possible to relatively measure the total amount of the siRNA or the total amount of the mRNA present in the solution.
Subsequently, the RiboGreen reagent was added to the lipid nanoparticle-containing solution without adding a surfactant, and the fluorescence intensity was measured in the same manner with a fluorescence intensity meter. By not adding a surfactant, it is possible to relatively measure the amount of the siRNA or the mRNA free in the solution without being encapsulated in the lipid nanoparticle.
Then, the fluorescence intensity obtained from the solution to which the surfactant was added obtained as described above was fluorescence intensity a, and the fluorescence intensity thus obtained from the solution to which no surfactant was added obtained as described above was fluorescence intensity b, and according to the expression (a−b)/a×100, the siRNA encapsulation rate (%) or the mRNA encapsulation rate (%) of the lipid nanoparticle was obtained. Each of fluorescence intensity a and fluorescence intensity b is a value obtained by subtracting a blank from the arithmetic average value of the results of three measurements for each solution. The blank was measured by carrying out the same operation on a well containing water containing no cell or lipid nanoparticle.

[3] = system: HT1080-EGFP (human/fibrosarcoma) cells; assay: Evaluation of knockdown effect (GFP assay), Cell experiment 1; assay type: cell-based; settings: lipid nanoparticle containing siRNA against EGFP; fluorescence intensity with control cells without lipid nanoparticle set at 100
Method: A cell experiment was carried out by using HT1080-EGFP (human/fibrosarcoma) cells in order to evaluate lipid nanoparticles encapsulating an siRNA produced by using the lipids of the Examples and the Comparative Examples. These cells are cells provided with a green fluorescent protein gene (EGFP). The expression of EGFP can be easily confirmed by measuring the fluorescence intensity of a solution in which the cells are lysed, and thus by acting lipid nanoparticles encapsulating an siRNA that suppresses the expression of EGFP and observing any decrease in fluorescence intensity, the performance of the lipid nanoparticles used can be evaluated. Hereinafter, the procedure of the cell experiment will be shown.
(§1) A. Provision of Cells • (i) A liquid medium (DMEM/Ham's F12, FBS+, P/S+) (FBS: fetal bovine serum, P/S: antibiotic) was taken out from a refrigerator and temperature-controlled in an incubator set at 37° C. • (ii) A cryotube containing the cells was taken out from a −80° C. freezer and thawed at once in an incubator set at 37° C. • (iii) A stock solution of the thawed cells was collected in a capped test tube. • (iv) The tube containing the cells was washed with the liquid medium, and the wash was also collected in the test tube. • (v) The tube was subjected to a centrifuge to precipitate the cells. • (vi) The supernatant was aspirated, and the liquid medium was added and gently tapped to disperse the cells. • (vii) A small amount of the cells-dispersed liquid medium was collected, and the number of cells was observed and counted under a microscope. • (viii) The cells were seeded in a 24-well plate such that the number of cells was 2×10^4 cells per well. For the plate for an LDH assay described later, the cells were seeded in a 96-well plate such that the number of cells was 4×10^3 cells per well. • (ix) The 24-well plate or the 96-well plate was placed in an incubator, and the cells were cultured for 24 hours under conditions of 37° C. and 5% CO2.
The produced lipid nanoparticles were introduced into cells. • (i) Fetal bovine serum (FBS) was added to a liquid medium (FBS-, P/S-) temperature-controlled as in (i) of A above, in such a way as to reach 10%. • (ii) A 24-well plate was taken out from an incubator, and the liquid medium supernatant in the 24-well plate was aspirated and washed with phosphate buffered saline (PBS). • (iii) 400 μL of the liquid medium produced in (i) above was added to the washed 24-well plate. In addition, 100 μL of an LNP solution having an adjusted concentration was added. • (iv) The 24-well plate was placed in the incubator, and the cells were cultured (for 24 hours). • (v) After 24 hours, the liquid medium supernatant in the 24-well plate was aspirated, and 500 μL of a liquid medium containing 10% FBS (FBS+/P/S+) was added. • (vi) The 24-well plate was placed in the incubator, and the cells were cultured for 24 hours under conditions of 37° C. and 5% CO2.
By carrying out a GFP assay, the EGFP expression level in cells was measured to evaluate the effect of knocking down the green fluorescent protein gene (EGFP) by lipid nanoparticles. • (i) A 24-well plate was taken out from an incubator and washed with PBS. • (ii) A 1% octylglucoside solution to which a protease inhibitor was added was added in order to disrupt cells. Stirring with a pipette lysed the cells. • (iii) The cell lysate was transferred to an Eppendorf tube and subjected to a centrifuge. • (iv) 150 μL of the supernatant was collected and added to a plate for fluorescence measurement. • (v) The fluorescence intensity was measured under conditions of an excitation wavelength of 485 nm and a fluorescence wavelength of 535 nm with a plate reader (manufactured by TECAN, Infinite M200). The fluorescence intensity was calculated with the fluorescence intensity of control cells to which no lipid nanoparticle was added set at 100.

[4] = system: HT1080-EGFP (human/fibrosarcoma) cells; assay: Evaluation of toxicity: LDH assay; assay type: cell-based; settings: lipid nanoparticle containing siRNA; absorbance relative to control cells without lipid nanoparticle set at 1.00
Method: as §1
The introduction of lipid nanoparticles into cells for an LDH assay described later was carried out as follows. • (i) A 96-well plate was taken out from an incubator. • (ii) The liquid medium supernatant in the 96-well plate was aspirated and washed with phosphate buffered saline (PBS). • (iii) 160 μL of a liquid medium containing 10% FBS (FBS+/P/S+) was added to the washed 96-well plate. In addition, 40 μL of an LNP solution having an adjusted concentration was added. • (iv) The 96-well plate was placed in the incubator, and the cells were cultured for 24 hours under conditions of 37° C. and 5% CO2.
For Examples 1 to 9, a CCK-8 assay or an LDH assay was carried out to measure the metabolic activity of viable cells and relatively quantify the number of surviving cells to evaluate the toxicity of lipid nanoparticles.
An LDH assay was carried out by using a viable cell counting kit (DOJINDO LABORATORIES, Cytotoxicity LDH Assay Kit-WST) as follows. • (i) 20 μL of a lysis buffer was added to each of positive control wells and incubated at 37° C. for 30 minutes in an incubator. • (ii) 100 μL of the supernatant was taken from each well and transferred to a 96-well plate for measurement. • (iii) 100 μL of the reagent mixture attached to the kit was added to all the wells, and a color reaction was carried out for 30 minutes at room temperature with exclusion of light. • (iv) 50 μL of the stop solution reagent attached to the kit was added to all the wells. • (v) The 96-well plate was measured under conditions of a measurement wavelength of 490 nm and a target wavelength of 630 nm with a plate reader (manufactured by TECAN, Infinite M200) to calculate the absorbance. The absorbance was calculated with the absorbance of control cells to which no lipid nanoparticle was added set at 1.00. When the obtained value was 0.50 or less, a rating of double-circle (excellent) was given, when the obtained value was more than 0.50 and 1.0 or less, a rating of circle (good) was given, when the obtained value was more than 1.0 and less than 6.0, a rating of triangle (fair) was given, and when the obtained value was 6.0 or more, a rating of X-mark (poor) was given.

Structure (SMILES)	Zeta potential (mV) [1] [mV]	Encapsulation rate (%) [2] [%]	GFP Assay [3]	Particle size (nm) [1] [nm]	PDI [1]	LDH Assay [4]
CCCCCCCC/C=C\CCCCCCCCC(CCCCCCC/C=C\CCCCCCCC)OC(=O)C(N)C(C)O (stereo not drawn) [Comparative Example 1, (9Z,27Z)-hexatriaconta-9,27-dien-18-yl 2-amino-3-hydroxybutanoate, reference compound]	27.8					
CCCCCCCC/C=C\CCCCCCCCC(CCCCCCC/C=C\CCCCCCCC)OC(=O)[C@@H](N)CCCCN (stereo partly drawn) [Comparative Example 4, (9Z,27Z)-hexatriaconta-9,27-dien-18-yl lysinate, reference compound]	26.5	99	86	147.5	0.063	
CCCCC/C=C\CCCC(CC/C=C\CCCCC)OC(=O)C(N)CCCCN (stereo not drawn) [Comparative Example 5, (6Z,14Z)-icosa-6,14-dien-10-yl lysinate, reference compound]	50.8	100		324.5	0.731	
CCCCCC/C=C\CCCCCCCCC(CCCCCCC/C=C\CCCCCC)OC(=O)C(N)CCCCN (stereo not drawn) [Comparative Example 6, (7Z,25Z)-dotriaconta-7,25-dien-16-yl lysinate, reference compound]	27.5	99		212.1	0.022	
CCCCCCCC/C=C\CCCCCCCCCCCCC(CCCCCCCCCCC/C=C\CCCCCCCC)OC(=O)[C@@H](N)CCCCN (stereo partly drawn) [Comparative Example 7, (9Z,35Z)-tetratetraconta-9,35-dien-22-yl lysinate, reference compound]	21.0	99		149.8	0.021	
CC/C=C\CCC(CCCCCCC/C=C\CCCCCC)OC(=O)[C@@H](N)CCCCN (stereo partly drawn) [Comparative Example 8, (3Z,15Z)-docosa-3,15-dien-7-yl lysinate, reference compound]	29.7	100		233.1	0.187	
CC/C=C\CCC(CCCCCCCCCCC/C=C\CCCCCCCC)OC(=O)[C@@H](N)CCCCN (stereo partly drawn) [Comparative Example 9, (3Z,19Z)-octacosa-3,19-dien-7-yl lysinate, reference compound]	32.7	100		759.4	0.508	
CCCCCCCC/C=C\CCCCCCCCC(CCCCCCC/C=C\CCCCCCCC)OC(=O)C(Cc1c[nH]cn1)NC(=O)C(N)CCCNC(=N)N (stereo not drawn) [Example 3, (9Z,27Z)-hexatriaconta-9,27-dien-18-ylarginylhistidinate]			22			◯ (when the obtained value was more than 0.50 and 1.0 or less, a rating of circle (good) was given)
CCCCC/C=C\C/C=C\CCCCCCCCC(CCCCCCC/C=C\C/C=C\CCCCC)OC(=O)C(NC(=O)C(N)CCCNC(=N)N)C(C)O (stereo not drawn) [Example 10, (6Z,9Z,27Z,30Z)-hexatriaconta-6,9,27,30-tetraen-18-yl 2-(2-amino-5-guanidinopentanamido)-3-hydroxybutanoate]	36.8	98	11	103.6	0.095	
